Several values for one entry are separate records, joined by “and”; a condition that tells them apart may be missing. Equal values may be shown once. Toxic doses and inconclusive results are not listed. No stated cut-off is given here; in the data, active means T/C of 150% or more; inactive means T/C below 125%.
Test system: L1210 leukemia ip in BDF1 mice, survival T/C
Assay: NCI In Vivo Anticancer Drug Screen. Data for tumor model L1210 Leukemia (intraperitoneal) in B6D2F1 (BDF1) mice
Conditions: endpoint: mean survival time, higher = longer survival
How it was run: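 Mice bearing the transplanted tumor received compound or vehicle. Survival of the treated group was divided by that of the vehicle-treated control group to give the ratio.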

[1] = dose: 100.0 mg/kg/injection, schedule: Q01DX009 (ip), vehicle: saline
[2] = dose: 100.0 mg/kg/injection, schedule: Q04DX003 (ip), vehicle: saline
[3] = dose: 200.0 mg/kg/injection, schedule: Q01DX009 (ip), vehicle: saline
[4] = dose: 200.0 mg/kg/injection, schedule: Q04DX003 (ip), vehicle: saline
[5] = dose: 400.0 mg/kg/injection, schedule: Q04DX003 (ip), vehicle: saline
[6] = dose: 100.0 mg/kg/injection, schedule: Q04DX003 (ip), vehicle: saline with Tween-80
[7] = dose: 400.0 mg/kg/injection, schedule: Q04DX003 (ip), vehicle: saline with Tween-80
[8] = dose: 50.0 mg/kg/injection, schedule: Q01DX001 (ip), vehicle: saline
[9] = dose: 100.0 mg/kg/injection, schedule: Q01DX001 (ip), vehicle: saline
[10] = dose: 200.0 mg/kg/injection, schedule: Q01DX001 (ip), vehicle: saline
[11] = dose: 400.0 mg/kg/injection, schedule: Q01DX001 (ip), vehicle: saline
[12] = dose: 400.0 mg/kg/injection, schedule: Q01DX009 (ip), vehicle: saline
[13] = dose: 100.0 mg/kg/injection, schedule: Q01DX001 (ip), vehicle: carboxymethylcellulose (CMC)
[14] = dose: 200.0 mg/kg/injection, schedule: Q01DX001 (ip), vehicle: carboxymethylcellulose (CMC)
[15] = dose: 400.0 mg/kg/injection, schedule: Q01DX001 (ip), vehicle: carboxymethylcellulose (CMC)
[16] = dose: 100.0 mg/kg/injection, schedule: Q04DX002 (ip), vehicle: Klucel (hydroxypropylcellulose) (HPC)
[17] = dose: 200.0 mg/kg/injection, schedule: Q04DX002 (ip), vehicle: Klucel (hydroxypropylcellulose) (HPC)
[18] = dose: 400.0 mg/kg/injection, schedule: Q04DX002 (ip), vehicle: Klucel (hydroxypropylcellulose) (HPC)
[19] = dose: 100.0 mg/kg/injection, schedule: Q01DX009 (ip), vehicle: Klucel (hydroxypropylcellulose) (HPC)
[20] = dose: 200.0 mg/kg/injection, schedule: Q01DX009 (ip), vehicle: Klucel (hydroxypropylcellulose) (HPC)
[21] = dose: 400.0 mg/kg/injection, schedule: Q01DX009 (ip), vehicle: Klucel (hydroxypropylcellulose) (HPC)
[22] = dose: 100.0 mg/kg/injection, schedule: Q04DX003 (ip), vehicle: Klucel (hydroxypropylcellulose) (HPC)
[23] = dose: 200.0 mg/kg/injection, schedule: Q04DX003 (ip), vehicle: Klucel (hydroxypropylcellulose) (HPC)
[24] = dose: 400.0 mg/kg/injection, schedule: Q04DX003 (ip), vehicle: Klucel (hydroxypropylcellulose) (HPC)
[25] = dose: 6.25 mg/kg/injection, schedule: Q01DX009 (ip), vehicle: Klucel (hydroxypropylcellulose) (HPC)
[26] = dose: 12.5 mg/kg/injection, schedule: Q01DX009 (ip), vehicle: Klucel (hydroxypropylcellulose) (HPC)

Measured: T/C

C=CCN1C2C=C(c3ccccc3)CC1CCC2 (stereo not given)
inactive: dose: 12.5 mg/kg/injection, schedule: Q04DX003 (ip), vehicle: Klucel (hydroxypropylcellulose) (HPC) 100 % of control | dose: 25.0 mg/kg/injection, schedule: Q04DX003 (ip), vehicle: Klucel (hydroxypropylcellulose) (HPC) 96 % of control

CCOC(=O)CNCc1cccc(Cl)c1
inactive: [1] 98 % of control | [2] 102 % of control | [3] 95 % of control | [4] 100 % of control | [5] 95 % of control

COc1cc(O)c([N+](=O)[O-])cc1OC
inactive: dose: 50.0 mg/kg/injection, schedule: Q04DX003 (ip), vehicle: DMSO 92 % of control | dose: 100.0 mg/kg/injection, schedule: Q04DX003 (ip), vehicle: DMSO 97 % of control | dose: 200.0 mg/kg/injection, schedule: Q04DX003 (ip), vehicle: DMSO 92 % of control

CCNC(=O)Nc1ccc(C(=O)O)c(O)c1 (tested in a mixture with another compound)
inactive: [6] 97 % of control | dose: 100.0 mg/kg/injection, schedule: Q04DX003 (sc), vehicle: olive oil, sesame oil, peanut oil 97 % of control | dose: 200.0 mg/kg/injection, schedule: Q04DX003 (ip), vehicle: saline with Tween-80 92 % of control | dose: 200.0 mg/kg/injection, schedule: Q04DX003 (sc), vehicle: olive oil, sesame oil, peanut oil 102 % of control | [7] 102 % of control | dose: 400.0 mg/kg/injection, schedule: Q04DX003 (sc), vehicle: olive oil, sesame oil, peanut oil 97 % of control

CC(=O)OC1C=COC(C)C1OC(C)=O (stereo not given)
inactive: [8] 105 % of control | [9] 97 % of control | [1] 109 % of control | [2] 102 % of control | [10] 100 % of control | [3] 93 % of control | [4] 91 % of control | [11] 105 % of control | [12] 102 % of control | [5] 96 % of control

O=C1CCSCC1
inactive: [9] 107 % of control | [1] 100 % of control | [2] 100 % of control | [10] 104 % of control | [3] 95 % of control | [4] 101 % of control | [11] 95 % of control | [12] 95 % of control | [5] 104 % of control

COc1cc(F)cc([N+](=O)[O-])c1
inactive: [13] 95 % of control | [14] 97 % of control | [15] 97 % of control

COc1ccc(OC)c(NC(=O)c2cccc([N+](=O)[O-])c2)c1
inactive: [13] 94 % of control | [14] 100 % of control | [15] 94 % of control

O=C(COc1ccc(F)cc1)N(CCO)CCO
inactive: [16] 96 % of control | [17] 92 % of control | [18] 114 % of control

C(=N\c1oc(-c2ccccc2)nc1Sc1ccccc1)/c1ccccc1
inactive: [16] 92 % of control | [17] 100 % of control | [18] 96 % of control

NC(=O)N/N=C/C1CCC=CO1 (stereo not given)
inactive: [19] 94 % of control | [20] 102 % of control | [21] 103 % of control

C1OC1[C@@H]1CC[C@H]1C1CO1 (stereo not given in full)
inactive: [8] 98 % of control and 112 % of control | dose: 51.1 mg/kg/injection, schedule: Q01DX Z (ip), vehicle: carboxymethylcellulose (CMC) 103 % of control | dose: 51.1 mg/kg/injection, schedule: Q01DX Z (ip), vehicle: methylcellulose (MC) 109 % of control | dose: 76.6 mg/kg/injection, schedule: Q01DX Z (ip), vehicle: carboxymethylcellulose (CMC) 114 % of control | dose: 76.6 mg/kg/injection, schedule: Q01DX Z (ip), vehicle: methylcellulose (MC) 118 % of control | dose: 88.0 mg/kg/injection, schedule: Q01DX001 (ip), vehicle: saline 107 % of control | [9] 112 % of control and 118 % of control | dose: 115.0 mg/kg/injection, schedule: Q01DX Z (ip), vehicle: methylcellulose (MC) 106 % of control | dose: 133.0 mg/kg/injection, schedule: Q01DX001 (ip), vehicle: saline 109 % of control

NS(=O)(=O)c1ccc(Cl)c([N+](=O)[O-])c1
inactive: dose: 100.0 mg/kg/injection, schedule: Q04DX002 (ip), vehicle: saline with Tween-80 98 % of control | dose: 200.0 mg/kg/injection, schedule: Q04DX002 (ip), vehicle: saline with Tween-80 91 % of control | dose: 400.0 mg/kg/injection, schedule: Q04DX002 (ip), vehicle: saline with Tween-80 91 % of control

CCCc1cc(=O)c2ccccc2n1COC(C)=O
inactive: dose: 50.0 mg/kg/injection, schedule: Q01DX001 (ip), vehicle: carboxymethylcellulose (CMC) 119 % of control | [13] 113 % of control | [14] 113 % of control

COc1cc(OC)c(OCc2ccccc2)c(OC)c1
inactive: [13] 96 % of control | [14] 94 % of control | [15] 96 % of control

CCCC(=O)Nc1cccc(OC(=O)NC)c1
inactive: [6] 90 % of control | [7] 88 % of control

OC(CNc1ccccc1)CN1CCCCC1 (stereo not given)
inactive: [2] 94 % of control

CCOc1ccc(-c2cc(=O)c3c(OC)c(OC)c(OC)c(OC)c3o2)cc1
inactive: dose: 100.0 mg/kg/injection, schedule: Q01DX001 (sc), vehicle: steriod suspending solution 111 % of control | dose: 200.0 mg/kg/injection, schedule: Q01DX001 (sc), vehicle: steriod suspending solution 96 % of control | dose: 400.0 mg/kg/injection, schedule: Q01DX001 (sc), vehicle: steriod suspending solution 96 % of control

Nc1ccc(C(=O)NCCCC(=O)O)cc1
inactive: [9] 108 % of control | [10] 103 % of control | [11] 95 % of control

O=C(O)C1C=CC(C(=O)O)c2ccccc21 (stereo not given)
inactive: [22] 102 % of control | [23] 96 % of control | [24] 98 % of control

C=C1C(=O)OC2/C=C(\C)CC/C=C(/C=O)C(OC)C(OC(=O)C(C)C)C12 (stereo not given)
inactive: [25] 95 % of control | [26] 100 % of control | dose: 25.0 mg/kg/injection, schedule: Q01DX009 (ip), vehicle: Klucel (hydroxypropylcellulose) (HPC) 101 % of control

CCCCC(=O)N/N=C\c1cc(Cl)cc(Cl)c1
inactive: [13] 100 % of control | [14] 93 % of control | [15] 96 % of control

CC1(C)CC(=O)c2c(cc(OS(C)(=O)=O)cc2OS(C)(=O)=O)O1
inactive: dose: 3.12 mg/kg/injection, schedule: Q01DX009 (ip), vehicle: Klucel (hydroxypropylcellulose) (HPC) 90 % of control | [25] 97 % of control | [26] 94 % of control

CC1(C)N=C(N)N=C(N)N1c1ccc(CCCCc2ccc(S(=O)(=O)F)cc2)cc1
inactive: dose: 50.0 mg/kg/injection, schedule: Q01DX009 (ip), vehicle: saline 113 % of control | [1] 106 % of control

Cc1cccc(C)c1N=Nc1cc[n+]([O-])cc1
inactive: dose: 6.25 mg/kg/injection, schedule: Q04DX003 (ip), vehicle: saline with Tween-80 92 % of control | dose: 12.5 mg/kg/injection, schedule: Q04DX003 (ip), vehicle: saline with Tween-80 95 % of control | dose: 25.0 mg/kg/injection, schedule: Q04DX003 (ip), vehicle: saline with Tween-80 102 % of control and 92 % of control | dose: 50.0 mg/kg/injection, schedule: Q04DX003 (ip), vehicle: saline with Tween-80 100 % of control

COc1cccc(CNc2ccc(C)cc2C)c1OC
inactive: [19] 100 % of control | [22] 92 % of control | [20] 107 % of control | [23] 91 % of control | [21] 109 % of control | [24] 97 % of control

CCCOCCC(c1ccccc1)(c1ccccc1)c1ccccc1
inactive: dose: 12.5 mg/kg/injection, schedule: Q01DX009 (ip), vehicle: saline with Tween-80 98 % of control | dose: 25.0 mg/kg/injection, schedule: Q01DX009 (ip), vehicle: saline with Tween-80 98 % of control | dose: 50.0 mg/kg/injection, schedule: Q01DX009 (ip), vehicle: saline with Tween-80 95 % of control | dose: 200.0 mg/kg/injection, schedule: Q01DX009 (ip), vehicle: saline with Tween-80 87 % of control
